Results published in US20110288086A1, “POLYCYCLIC QUINAZOLINES, PREPARATION THEREOF, AND USE THEREOF” (priority 2010, published 2011).
Values after ≈ are worked out from the molar mass of the structure shown. Structures can show the parent of a compound that is named as a salt.

Columns and labels:
[1] = tested on: Hep3B2. 1-7 human hepatoma carcinoma cells; test: Tumor cell IC50, CCK-8 kit, Hep3B; assay type: cell-based
Description: (§1) The inhibitory activities of the compounds on tumor cells (IC50) in vitro
(§2) The IC50 (IC50, unit: μg/ml) values of the compounds on Hut78 T-Lymphocytic Leukemia cells, Jurkat E6-1 human T-cell lymphoma, PANC-1 human pancreatic cancer cells, A549 human lung cancer cells, K562 human chronicity marrow leukemic cells, Hep3B2. 1-7 human hepatoma carcinoma cells, MDA-MB-435s human breast carcinoma cells, Colo320 human rectal cancer cells, PC-3 human carcinoma of prostate, and HepG2 human hepatoma carcinoma cells were determined using a CCK-8 kit. Erlotinib hydrochloride was used as the positive control drug.

[2] = tested on: MDA-MB-435s human breast carcinoma cells; test: Tumor cell IC50, CCK-8 kit, MDA-MB-435s; assay type: cell-based; conditions: 435s cells
Description: as §1, §2

[3] = tested on: K562 human chronicity marrow leukemic cells; test: Tumor cell IC50, CCK-8 kit, K562; assay type: cell-based
Description: as §1, §2

[4] = tested on: A549 human lung cancer cells; test: Tumor cell IC50, CCK-8 kit, A549; assay type: cell-based
Description: as §1, §2

[5] = tested on: PANC-1 human pancreatic cancer cells; test: Tumor cell IC50, CCK-8 kit, PANC-1; assay type: cell-based; conditions: PANC-1 cells
Description: as §1, §2

[6] = tested on: Hut78 T-Lymphocytic Leukemia cells; test: Tumor cell IC50, CCK-8 kit, Hut78; assay type: cell-based; conditions: Homo sapiens, Hut-78 cells
Description: as §1, §2

[7] = tested on: Jurkat E6-1 human T-cell lymphoma; test: Tumor cell IC50, CCK-8 kit, Jurkat E6-1; assay type: cell-based; conditions: E6-1 cells
Description: as §1, §2

[8] = tested on: Colo320 human rectal cancer cells; test: Tumor cell IC50, CCK-8 kit, Colo320; assay type: cell-based; conditions: COLO 320
Description: as §1, §2

[9] = tested on: PC-3 human carcinoma of prostate; test: Tumor cell IC50, CCK-8 kit, PC-3; assay type: cell-based; conditions: PC-3 cells
Description: as §1, §2

[10] = tested on: K562 human chronicity marrow leukemic cells; test: Tumor cell inhibition ratio, CCK-8 kit, K562; conditions: K562, read-out: Antiproliferative effect (inhibition ratio) K562
Description: (§3) The inhibitory activities of the compounds on tumor cells in vitro

[11] = tested on: PANC-1 human pancreatic cancer cells; test: Tumor cell inhibition ratio, CCK-8 kit, PANC-1; conditions: PANC-1, read-out: Antiproliferative effect (inhibition ratio) PANC-1
Description: as §3

[12] = tested on: Jurkat E6-1 human T-cell lymphoma; test: Tumor cell inhibition ratio, CCK-8 kit, Jurkat E6-1; conditions: Jurkat E6.1, read-out: Antiproliferative effect (inhibition ratio) E6-1
Description: as §3

aurora kinase B = biological target: T1, aurora kinase B (Homo sapiens, UniProt Q96GD4); test: Aurora kinase B inhibition in vitro (Invitrogen aurora kinase screening kit PV3174); assay type: biochemical
T1 construct: purchased Invitrogen PV3174

[13] = tested on: Hep3B2.1-7 human hepatoma carcinoma cells; test: Tumor cell inhibition ratio, CCK-8 kit, Hep3B; conditions: read-out: Antiproliferative effect (inhibition ratio) Hep3B
Description: as §3

EGFR tyrosine kinase = EGFR tyrosine kinase (Homo sapiens, UniProt P00533); test: EGFR tyrosine kinase inhibition in vitro (Invitrogen EGFR inhibitor screening kit PV3193)
Description: The inhibitory activities of EGFR tyrosine kinase in vitro
Erlotinib hydrochloride was used as a positive control drug.

[14] = tested on: MDA-MB-435s human breast carcinoma cells; test: Tumor cell inhibition ratio, CCK-8 kit, MDA-MB-435s; conditions: read-out: Antiproliferative effect (inhibition ratio) 435s
Description: as §3

[15] = tested on: Colo320 human rectal cancer cells; test: Tumor cell inhibition ratio, CCK-8 kit, Colo320; conditions: COLO 320, read-out: Antiproliferative effect (inhibition ratio) Colo320
Description: as §3

[16] = tested on: A549 human lung cancer cells; test: Tumor cell inhibition ratio, CCK-8 kit, A549; conditions: A549, read-out: Antiproliferative effect (inhibition ratio) A549
Description: as §3

[17] = tested on: PC-3 human carcinoma of prostate; test: Tumor cell inhibition ratio, CCK-8 kit, PC-3; conditions: read-out: Antiproliferative effect (inhibition ratio) PC-3
Description: as §3

[18] = tested on: Hut78 T-Lymphocytic Leukemia cells; test: Tumor cell inhibition ratio, CCK-8 kit, Hut78; conditions: Homo sapiens, HuT78, read-out: Antiproliferative effect (inhibition ratio) Hut-78
Description: as §3

T1 sequence (Q96GD4 whole entry): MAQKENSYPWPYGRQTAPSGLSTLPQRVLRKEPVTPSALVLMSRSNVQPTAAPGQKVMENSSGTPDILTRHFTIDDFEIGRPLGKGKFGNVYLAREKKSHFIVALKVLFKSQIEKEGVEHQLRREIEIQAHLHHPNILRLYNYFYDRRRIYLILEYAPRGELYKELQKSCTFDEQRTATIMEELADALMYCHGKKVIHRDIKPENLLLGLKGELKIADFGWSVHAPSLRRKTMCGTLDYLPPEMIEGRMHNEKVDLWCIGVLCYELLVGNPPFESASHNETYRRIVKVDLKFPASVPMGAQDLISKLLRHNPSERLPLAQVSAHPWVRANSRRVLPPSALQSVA
Chain of EGFR tyrosine kinase (P00533 25-1210): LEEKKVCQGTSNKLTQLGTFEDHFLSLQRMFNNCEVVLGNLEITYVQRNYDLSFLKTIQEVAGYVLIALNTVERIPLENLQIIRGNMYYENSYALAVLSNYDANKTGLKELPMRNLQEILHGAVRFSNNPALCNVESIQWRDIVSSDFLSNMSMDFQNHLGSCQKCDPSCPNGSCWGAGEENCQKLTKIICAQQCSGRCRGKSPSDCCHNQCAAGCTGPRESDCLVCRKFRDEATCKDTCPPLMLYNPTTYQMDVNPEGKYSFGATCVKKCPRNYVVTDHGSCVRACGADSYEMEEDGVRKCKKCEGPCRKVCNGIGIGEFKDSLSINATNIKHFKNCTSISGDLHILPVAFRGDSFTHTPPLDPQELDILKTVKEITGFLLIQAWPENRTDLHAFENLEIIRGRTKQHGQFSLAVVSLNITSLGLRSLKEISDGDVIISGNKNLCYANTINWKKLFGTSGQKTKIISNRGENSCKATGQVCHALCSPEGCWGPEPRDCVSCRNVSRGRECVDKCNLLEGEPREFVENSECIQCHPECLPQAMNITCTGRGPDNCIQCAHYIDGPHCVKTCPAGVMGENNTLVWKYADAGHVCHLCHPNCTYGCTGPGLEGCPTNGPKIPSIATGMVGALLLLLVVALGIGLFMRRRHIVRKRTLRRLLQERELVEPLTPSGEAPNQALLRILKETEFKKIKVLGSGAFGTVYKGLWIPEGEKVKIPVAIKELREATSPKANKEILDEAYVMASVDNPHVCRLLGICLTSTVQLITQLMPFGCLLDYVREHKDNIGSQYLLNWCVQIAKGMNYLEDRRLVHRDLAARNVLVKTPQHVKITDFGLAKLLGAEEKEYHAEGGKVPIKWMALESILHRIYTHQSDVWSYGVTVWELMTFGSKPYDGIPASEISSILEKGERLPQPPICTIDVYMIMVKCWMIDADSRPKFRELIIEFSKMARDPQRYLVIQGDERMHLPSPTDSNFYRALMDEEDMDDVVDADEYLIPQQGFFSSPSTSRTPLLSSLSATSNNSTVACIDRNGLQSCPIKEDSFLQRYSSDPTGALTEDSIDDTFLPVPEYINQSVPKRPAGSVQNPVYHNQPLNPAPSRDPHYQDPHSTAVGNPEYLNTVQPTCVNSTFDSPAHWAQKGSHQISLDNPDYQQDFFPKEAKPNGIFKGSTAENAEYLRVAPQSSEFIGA

Row | Compound | IC50 [1] [µg/mL] | IC50 [2] [µg/mL] | IC50 [3] [µg/mL] | IC50 [4] [µg/mL] | IC50 [5] [µg/mL] | IC50 [6] [µg/mL] | IC50 [7] [µg/mL] | IC50 [8] [µg/mL] | IC50 [9] [µg/mL] | inhibition at 10 µM [10] [%] | inhibition at 100 µM [10] [%] | inhibition at 10 µM [11] [%] | inhibition at 100 µM [11] [%] | inhibition at 10 µM [12] [%] | inhibition at 100 µM [12] [%] | The inhibition ratio of the compound on Aurora B(%) (aurora kinase B; 40 μM) | The inhibition ratio of the compound on Aurora B(%) (aurora kinase B; 200 μM) | inhibition at 10 µM [13] [%] | inhibition at 100 µM [13] [%] | The inhibition ratio of the compound on EGFR(%) (EGFR tyrosine kinase; 40 μM) | other results
1 | C#Cc1cccc(Nc2ncnc3cc(OCCOC)c(OCCOC)cc23)c1 [Erlotinib hydrochloride, reference compound] | 62.3 | 13.1 | 39.9 | 19.3 | 32.5 | 43.2 | 35.6 | 40.4 | 54.2 |  |  |  |  |  |  |  |  |  |  |  | 
2 | COc1cc2c(cc1OCCCN1CCOCC1)C1=Nc3cc(Cl)ccc3CN1C=N2 [Compound V-28, 4-(3-((11-chloro-3-methoxy-8H-quinazolino[4,3-b]quinazoline-2-yl)oxy)propyl)morpholine] | 36.8 (≈ 83.3 µM) | 16.3 (≈ 37 µM) | 7.84 (≈ 17.8 µM) | 6.42 (≈ 14.6 µM) | 18.8 (≈ 42.6 µM) | 16.7 (≈ 37.9 µM) | 10 (≈ 22.7 µM) | 59.7 (≈ 135 µM) | 31.4 (≈ 71.3 µM) | 64.6 | 99.9 | 51.7 | 95.6 | 40.4 | 95.4 | 45.2 | 78.7 | 40.1 | 92.8 | 64.4 | The inhibition ratio of the compound on EGFR(%) (EGFR tyrosine kinase; 200 μM): 98.7%; inhibition at 10 µM [14]: 54.9%; inhibition at 100 µM [14]: 90.7%; inhibition at 10 µM [15]: 16.3%; inhibition at 100 µM [15]: 63.3%; inhibition at 10 µM [16]: 53.7%; inhibition at 100 µM [16]: 97.5%; inhibition at 10 µM [17]: 56.4%; inhibition at 100 µM [17]: 88%; inhibition at 10 µM [18]: 59.2%; inhibition at 100 µM [18]: 90.5%
3 | COCCOc1cc2c(cc1OCCOC)C1=Nc3cccc(O)c3CN1C=N2 [Compound V-8, 9-hydroxy-2,3-bis(2-methoxyethoxy)-8H-quinazolino[4,3-b]quinazoline] | 33.1 (≈ 83.4 µM) | 27.6 (≈ 69.5 µM) | 63.1 (≈ 159 µM) | 30 (≈ 75.5 µM) | 21.2 (≈ 53.3 µM) | 53.1 (≈ 134 µM) | 8.11 (≈ 20.4 µM) | 29.8 (≈ 74.9 µM) | 9.9 (≈ 24.9 µM) | 52.4 | 92.2 | 41.5 | 89.8 | 44 | 85.4 | 32.3 | 96.4 | 52.4 | 87.3 | 52.3 | The inhibition ratio of the compound on EGFR(%) (EGFR tyrosine kinase; 200 μM): 95.6%; inhibition at 10 µM [14]: 55%; inhibition at 100 µM [14]: 93.7%; inhibition at 10 µM [15]: 64.5%; inhibition at 100 µM [15]: 94.8%; inhibition at 10 µM [16]: 52.8%; inhibition at 100 µM [16]: 80%; inhibition at 10 µM [17]: 45.2%; inhibition at 100 µM [17]: 94%; inhibition at 10 µM [18]: 35.6%; inhibition at 100 µM [18]: 75.9%
4 | C#Cc1ccc2c(c1)N=C1c3cc(OCCOC)c(OCCOC)cc3N=CN1C2 [Compound V-19, 11-ethynyl-2,3-bis(2-methoxyethoxy)-8H-quinazolino[4,3-b]quinazoline] | 9.32 (≈ 23 µM) | 36.5 (≈ 90.1 µM) | 31.1 (≈ 76.7 µM) | 50 (≈ 123 µM) | 27.3 (≈ 67.4 µM) | 47.4 (≈ 117 µM) | 12.5 (≈ 30.7 µM) | 10 (≈ 24.7 µM) | 15.3 (≈ 37.8 µM) | 45.4 | 81.1 | 49.7 | 85.9 | 55.2 | 91.1 | 52.4 | 95.7 | 53.5 | 85 | 53.4 | The inhibition ratio of the compound on EGFR(%) (EGFR tyrosine kinase; 200 μM): 95.7%; inhibition at 10 µM [14]: 55.8%; inhibition at 100 µM [14]: 91.6%; inhibition at 10 µM [15]: 37%; inhibition at 100 µM [15]: 89.6%; inhibition at 10 µM [16]: 48.6%; inhibition at 100 µM [16]: 90.7%; inhibition at 10 µM [17]: 62.2%; inhibition at 100 µM [17]: 92.7%; inhibition at 10 µM [18]: 33%; inhibition at 100 µM [18]: 63.8%
5 | COCCOc1cc2c(cc1OCCOC)C1=Nc3cccc([N+](=O)[O-])c3CN1C=N2 [Compound V-5, 9-nitro-2,3-bis(2-methoxyethoxy)-8H-quinazolino[4,3-b]quinazoline] |  |  |  |  |  |  |  |  |  | 23.6 | 78.3 | 17.1 | 80.3 | 34.8 | 78.9 | 35.1 | 74.6 | 22.3 | 54.4 | 25.2 | The inhibition ratio of the compound on EGFR(%) (EGFR tyrosine kinase; 200 μM): 74.6%; inhibition at 10 µM [14]: 48.9%; inhibition at 100 µM [14]: 87.2%; inhibition at 10 µM [15]: 51.7%; inhibition at 100 µM [15]: 84.9%; inhibition at 10 µM [16]: 59.8%; inhibition at 100 µM [16]: 92.5%; inhibition at 10 µM [17]: 32.5%; inhibition at 100 µM [17]: 63.6%; inhibition at 10 µM [18]: 43.8%; inhibition at 100 µM [18]: 63.5%
